Test results: patent US8063071B2 (GlaxoSmithKline, LLC, priority 2007, dated 2011)
Counter-ions that a name gives are not always drawn.

Columns and labels:
[1] = molecular target: T1, Recombinant human IKKβ (residues 1-737) (Homo sapiens, UniProt O14920); assay: IKK2 assay (TR-FRET); type: biochemical; conditions: ATP 1 μM final, read-out: pIC50 against IKK2 (converted)
T1 construct: Recombinant human IKKβ (residues 1-737); GST (C); made in house
T1 sequence (O14920 1-737): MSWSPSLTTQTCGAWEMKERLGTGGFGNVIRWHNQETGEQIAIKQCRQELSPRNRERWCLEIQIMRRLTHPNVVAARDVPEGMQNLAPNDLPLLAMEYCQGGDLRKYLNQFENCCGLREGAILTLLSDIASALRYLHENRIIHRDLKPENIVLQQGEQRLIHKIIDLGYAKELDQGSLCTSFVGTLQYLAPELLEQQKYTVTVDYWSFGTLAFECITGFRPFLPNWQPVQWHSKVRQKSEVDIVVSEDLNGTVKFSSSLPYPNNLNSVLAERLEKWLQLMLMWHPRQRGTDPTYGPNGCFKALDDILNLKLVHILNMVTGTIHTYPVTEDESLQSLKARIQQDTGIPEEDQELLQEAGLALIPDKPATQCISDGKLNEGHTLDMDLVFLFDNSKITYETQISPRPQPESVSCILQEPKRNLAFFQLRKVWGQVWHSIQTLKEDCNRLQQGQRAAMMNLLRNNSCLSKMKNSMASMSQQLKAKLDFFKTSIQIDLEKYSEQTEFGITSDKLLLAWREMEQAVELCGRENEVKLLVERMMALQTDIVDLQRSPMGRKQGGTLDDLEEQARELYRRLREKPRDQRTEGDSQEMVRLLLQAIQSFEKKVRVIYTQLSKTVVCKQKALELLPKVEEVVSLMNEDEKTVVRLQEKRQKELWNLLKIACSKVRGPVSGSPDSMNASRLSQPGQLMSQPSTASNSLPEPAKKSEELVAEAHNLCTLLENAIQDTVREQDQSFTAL
In short: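 Baculovirus-expressed C-terminal GST-tagged IKKβ (0.5-5 nM final) in HEPES pH 7.4, MgCl2, CHAPS, DTT, BSA with 1.7% DMSO; 25 nM GST-IB substrate and 1 μM ATP, 15 min at room temperature. EDTA stop; phospho-Ser32/36 detected by Eu-antibody/APC-anti-GST TR-FRET, 665/620 nm ratio.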

[2] = tested on: human monocyte stimulated cytokine production (TNF-α); assay: Monocyte assay (LPS-stimulated TNF-α production); type: cell-based; conditions: for IC50: 24 h, 200 ng/mL LPS, TNF-α by ELISA; for inhibition at 0.3 µM: read-out: inhibition at 300 nM in the monocyte assay
In short: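 Human CD14+ monocytes were purified from blood and plated at 1×10^6 cells/mL in RPMI 1640 with 10% FBS. Compound was added 30 min before stimulation with 200 ng/mL LPS (0.1% DMSO final), followed by 24 hrs at 37 C. Supernatant TNF-α was measured by ELISA, and viability by trypan blue exclusion.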

Structure (SMILES)	IC50 [1]	IC50 [2]	inhibition at 0.3 µM [2]
CCC(C)NCc1cc(F)cc(-c2cc(C(N)=O)c3[nH]cc(C4CCN(S(=O)(=O)CC)CC4)c3c2)c1 (centres unmarked) [Example 316, 3-[1-(ethylsulfonyl)-4-piperidinyl]-5-(3-fluoro-5-{[(1-methylpropyl)amino]methyl}phenyl)-1H-indole-7-carboxamide trifluoroacetate]	≤ 10 µM	≤ 1.5 µM	–
CCS(=O)(=O)N1CCC(c2c[nH]c3c(C(N)=O)cc(-c4cc(CN5CCCC5)ccc4F)cc23)CC1 [Example 340, 3-[1-(ethylsulfonyl)-4-piperidinyl]-5-[2-fluoro-5-(1-pyrrolidinylmethyl)phenyl]-1H-indole-7-carboxamide trifluoroacetate]	≤ 10 µM	> 1 µM	–
CCS(=O)(=O)N1CCC(c2c[nH]c3c(C(N)=O)cc(-c4csc(CN(C)C(C)(C)C)c4)cc23)CC1 [Example 406, 5-(5-{[(1,1-dimethylethyl)(methyl)amino]methyl}-3-thienyl)-3-[1-(ethylsulfonyl)-4-piperidinyl]-1H-indole-7-carboxamide trifluoroacetate]	≤ 10 µM	≤ 1.5 µM	–
CCS(=O)(=O)N1CCC(c2c[nH]c3c(C(N)=O)cc(-c4csc(CN5CCOCC5)n4)cc23)CC1 [Example 351, 3-[1-(ethylsulfonyl)-4-piperidinyl]-5-[2-(4-morpholinylmethyl)-1,3-thiazol-4-yl]-1H-indole-7-carboxamide trifluoroacetate]	≤ 10 µM	–	0 to 60%
CCS(=O)(=O)N1CCC(c2c[nH]c3c(C(N)=O)cc(-c4cc(F)cc(CNCC(C)(C)C)c4)cc23)CC1 [Example 321, 5-(3-{[(2,2-dimethylpropyl)amino]methyl}-5-fluorophenyl)-3-[1-(ethylsulfonyl)-4-piperidinyl]-1H-indole-7-carboxamide trifluoroacetate]	≤ 10 µM	≤ 1.5 µM	–
CCS(=O)(=O)N1CCC(c2c[nH]c3c(C(N)=O)cc(-c4cc(CNC)cs4)cc23)CC1 [Example 208, 3-[1-(ethylsulfonyl)-4-piperidinyl]-5-{4-[(methylamino)methyl]-2-thienyl}-1H-indole-7-carboxamide trifluoroacetate]	≤ 10 µM	≤ 1.5 µM	–
CCS(=O)(=O)N1CCC(c2c[nH]c3c(C(N)=O)cc(-c4cnn(CCNC(C)C)c4)cc23)CC1 [Example 259, 3-[1-(ethylsulfonyl)-4-piperidinyl]-5-(1-{2-[(1-methylethyl)amino]ethyl}-1H-pyrazol-4-yl)-1H-indole-7-carboxamide trifluoroacetate]	≤ 10 µM	> 1 µM	–
CCCC(C)NCc1cccc(-c2cc(C(N)=O)c3[nH]cc(C4CCN(S(=O)(=O)CC)CC4)c3c2)c1 (centres unmarked) [Example 154, 3-[1-(ethylsulfonyl)-4-piperidinyl]-5-(3-{[(1-methylbutyl)amino]methyl}phenyl)-1H-indole-7-carboxamide trifluoroacetate]	≤ 10 µM	≤ 1.5 µM	–
CCS(=O)(=O)N1CCC(c2c[nH]c3c(C(N)=O)cc(-c4ccc(CNC(=O)C5CC5)cc4)cc23)CC1 [Example 158, 5-(4-{[(cyclopropylcarbonyl)amino]methyl}phenyl)-3-[1-(ethylsulfonyl)-4-piperidinyl]-1H-indole-7-carboxamide]	≤ 10 µM	> 1 µM	–
CCS(=O)(=O)N1CCC(c2c[nH]c3c(C(N)=O)cc(-c4coc(CNCC(C)C)c4)cc23)CC1 [Example 245, 3-[1-(ethylsulfonyl)-4-piperidinyl]-5-(5-{[(2-methylpropyl)amino]methyl}-3-furanyl)-1H-indole-7-carboxamide trifluoroacetate]	≤ 10 µM	≤ 1.5 µM	–
CCS(=O)(=O)N1CCC(c2c[nH]c3c(C(N)=O)cc(-c4csc(CN(C)CCN(C)C)c4)cc23)CC1 [Example 69, 5-(5-{[[2-(dimethylamino)ethyl](methyl)amino]methyl}-3-thienyl)-3-[1-(ethylsulfonyl)-4-piperidinyl]-1H-indole-7-carboxamide trifluoroacetate]	≤ 10 µM	≤ 1.5 µM	–
CCN(CC)CCN(C)Cc1cc(-c2cc(C(N)=O)c3[nH]cc(C4CCN(S(=O)(=O)CC)CC4)c3c2)cs1 [Example 66, 5-(5-{[[2-(diethylamino)ethyl](methyl)amino]methyl}-3-thienyl)-3-[1-(ethylsulfonyl)-4-piperidinyl]-1H-indole-7-carboxamide trifluoroacetate]	≤ 10 µM	≤ 1.5 µM	–
CCS(=O)(=O)N1CCC(c2c[nH]c3c(C(N)=O)cc(-c4ccc(F)c(CNC5CC5)c4)cc23)CC1 [Example 274, 5-{3-[(cyclopropylamino)methyl]-4-fluorophenyl}-3-[1-(ethylsulfonyl)-4-piperidinyl]-1H-indole-7-carboxamide trifluoroacetate]	≤ 10 µM	≤ 1.5 µM	–
CCS(=O)(=O)N1CCC(c2c[nH]c3c(C(N)=O)cc(-c4csc(CN(C)Cc5c(C)n[nH]c5C)c4)cc23)CC1 [Example 400, 5-(5-{[[(3,5-dimethyl-1H-pyrazol-4-yl)methyl](methyl)amino]methyl}-3-thienyl)-3-[1-(ethylsulfonyl)-4-piperidinyl]-1H-indole-7-carboxamide]	≤ 10 µM	≤ 1.5 µM	–
CCS(=O)(=O)N1CCC(c2c[nH]c3c(C(N)=O)cc(-c4csc(CN[C@H](C)CO)c4)cc23)CC1 [Example 234, 3-[1-(ethylsulfonyl)-4-piperidinyl]-5-[5-({[(1R)-2-hydroxy-1-methylethyl]amino}methyl)-3-thienyl]-1H-indole-7-carboxamide trifluoroacetate (salt)]	≤ 10 µM	≤ 1.5 µM	–
CC[C@H](C)CNCc1cc(F)cc(-c2cc(C(N)=O)c3[nH]cc(C4CCN(S(=O)(=O)CC)CC4)c3c2)c1 [Example 318, 3-[1-(ethylsulfonyl)-4-piperidinyl]-5-[3-fluoro-5-({[(2S)-2-methylbutyl]amino}methyl)phenyl]-1H-indole-7-carboxamide trifluoroacetate]	≤ 10 µM	≤ 1.5 µM	–
CCS(=O)(=O)N1CCC(c2c[nH]c3c(C(N)=O)cc(-c4cc(F)cc(CN[C@@H](C)C(C)(C)C)c4)cc23)CC1 [Example 317, 3-[1-(ethylsulfonyl)-4-piperidinyl]-5-[3-fluoro-5-({[(1S)-1,2,2-trimethylpropyl]amino}methyl)phenyl]-1H-indole-7-carboxamide trifluoroacetate]	≤ 10 µM	≤ 1.5 µM	–
CCS(=O)(=O)N1CCC(c2c[nH]c3c(C(N)=O)cc(-c4csc(CN5CCCC5CN5CCCCC5)c4)cc23)CC1 (centres unmarked) [Example 47, 3-[1-(ethylsulfonyl)-4-piperidinyl]-5-(5-{[2-(1-piperidinylmethyl)-1-pyrrolidinyl]methyl}-3-thienyl)-1H-indole-7-carboxamide]	≤ 10 µM	–	0 to 60%
CCS(=O)(=O)N1CCC(c2c[nH]c3c(C(N)=O)cc(-c4cc(F)cc(CNCC5CCOCC5)c4)cc23)CC1 [Example 324, 3-[1-(ethylsulfonyl)-4-piperidinyl]-5-(3-fluoro-5-{[(tetrahydro-2H-pyran-4-ylmethyl)amino]methyl}phenyl)-1H-indole-7-carboxamide trifluoroacetate]	≤ 10 µM	≤ 1.5 µM	–
CCS(=O)(=O)N1CCC(c2c[nH]c3c(C(N)=O)cc(-c4csc(CN[C@@H](C)C(C)C)c4)cc23)CC1 [Example 116, 5-[5-({[(1S)-1,2-dimethylpropyl]amino}methyl)-3-thienyl]-3-[1-(ethylsulfonyl)-4-piperidinyl]-1H-indole-7-carboxamide trifluoroacetate]	≤ 10 µM	≤ 1.5 µM	–
CCS(=O)(=O)N1CCC(c2c[nH]c3c(C(N)=O)cc(-c4csc(CNCc5ccccc5)c4)cc23)CC1 [Example 118, 3-[1-(ethylsulfonyl)-4-piperidinyl]-5-(5-{[(phenylmethyl)amino]methyl}-3-thienyl)-1H-indole-7-carboxamide trifluoroacetate]	≤ 10 µM	> 1 µM	–
CCS(=O)(=O)N1CCC(c2c[nH]c3c(C(N)=O)cc(-c4csc(CN(C)CC#N)c4)cc23)CC1 [Example 401, 5-(5-{[(cyanomethyl)(methyl)amino]methyl}-3-thienyl)-3-[1-(ethylsulfonyl)-4-piperidinyl]-1H-indole-7-carboxamide]	≤ 10 µM	≤ 1.5 µM	–
